Experimental data published in patent publication US7217726B2, “Antibacterial agents” (Orchid Chemicals & Pharmaceuticals Limited, priority 2002, dated 2007).
In brackets after ≈: the same amount, converted by molar mass.

Legend:
[1] = system: S. aureus ATCC 43300; assay: Agar Dilution Method MIC, S. aureus ATCC 43300; format: cell-based; conditions: Staphylococcus aureus, ATCC43300, Mueller Hinton Agar, 35° Celsius, 20 hours, read-out: Minimum Inhibitory Concentration (MIC in μg/ml)
Method: (§1) Briefly, the compounds of invention were weighed, dissolved in Dimethyl Sulfoxide, serially diluted in the same solvent and then incorporated into molten Mueller Hinton Agar in a petridish before solidification, with each petridish containing a different concentration of a compound.
(§2) The Bacterial Inoculum was prepared by touching the tops of 3 to 5 well isolated bacterial colonies with the same morphological appearance from an 18 hour old culture with an inoculating loop, transfering the growth to a tube containing 5 ml of normal saline and adjusting the turbidity of the saline suspension to 0.5 Macfarland Turbidity Standard equivalent to a bacterial population of 1.5×10^8 colony forming units (CFU) per millilitre of suspension.
(§3) The bacterial inoculum prepared in the above manner was inoculated onto petri dishes containing Mueller Hinton Agar which had earlier been incorporated with different dilutions of the compounds of invention by a Multipoint Inoculator with each inoculum spot containing approximately 1×10^4 colony forming units (CFU) of bacteria.
(§4) The inoculated petridishes were incubated at 35° Celsius in an ambient atmosphere for 20 hours. Petridishes containing different concentrations of Vancomycin and Oxacillin and inoculated with Staphylococcus aureus, Coagulase Negative Staphylococci and Enterococci were incubated for 24 hours.

[2] = system: S. aureus ATCC 29213; assay: Agar Dilution Method MIC, S. aureus ATCC 29213; format: cell-based; conditions: Staphylococcus aureus, ATCC29213, Mueller Hinton Agar, 35° Celsius, 20 hours, read-out: Minimum Inhibitory Concentration (MIC in μg/ml)
Method: as §1, §2, §3, §4

[3] = system: S. aureus MRO 00059; assay: Agar Dilution Method MIC, S. aureus MRO 00059; format: cell-based; conditions: Staphylococcus aureus, MRO00059, Mueller Hinton Agar, 35° Celsius, 20 hours, read-out: Minimum Inhibitory Concentration (MIC in μg/ml)
Method: as §1, §2, §3, §4

[4] = system: S. aureus MRO 00013; assay: Agar Dilution Method MIC, S. aureus MRO 00013; format: cell-based; conditions: Staphylococcus aureus, MRO00013, Mueller Hinton Agar, 35° Celsius, 20 hours, read-out: Minimum Inhibitory Concentration (MIC in μg/ml)
Method: as §1, §2, §3, §4

[5] = system: E. faecalis ATCC 29212; assay: Agar Dilution Method MIC, E. faecalis ATCC 29212; format: cell-based; conditions: Enterococcus faecalis, ATCC29212, Mueller Hinton Agar, 35° Celsius, 20 hours, read-out: Minimum Inhibitory Concentration (MIC in μg/ml)
Method: as §1, §2, §3, §4

[6] = system: M. catarrhalis ATCC 43627; assay: Agar Dilution Method MIC, M. catarrhalis ATCC 43627; format: cell-based, Morexella catarrhalis; conditions: Moraxella catarrhalis, ATCC43627, Mueller Hinton Agar, 35° Celsius, 20 hours, read-out: Minimum Inhibitory Concentration (MIC in μg/ml)
Method: as §1, §2, §3, §4

[7] = system: S. aureus MRO 00030; assay: Agar Dilution Method MIC, S. aureus MRO 00030; format: cell-based; conditions: Staphylococcus aureus, MRO00030, Mueller Hinton Agar, 35° Celsius, 20 hours, read-out: Minimum Inhibitory Concentration (MIC in μg/ml)
Method: as §1, §2, §3, §4

[8] = system: E. faecalis ATCC 51299; assay: Agar Dilution Method MIC, E. faecalis ATCC 51299; format: cell-based; conditions: Enterococcus faecalis, ATCC51299, Mueller Hinton Agar, 35° Celsius, 20 hours, read-out: Minimum Inhibitory Concentration (MIC in μg/ml)
Method: as §1, §2, §3, §4

[9] = system: S. epidermidis MRO 02046; assay: Agar Dilution Method MIC, S. epidermidis MRO 02046; format: cell-based; conditions: Staphylococcus epidermidis, MRO02046, Mueller Hinton Agar, 35° Celsius, 20 hours, read-out: Minimum Inhibitory Concentration (MIC in μg/ml)
Method: as §1, §2, §3, §4

[10] = system: S. aureus MRO 00055; assay: Agar Dilution Method MIC, S. aureus MRO 00055; format: cell-based; conditions: Staphylococcus aureus, MRO00055, Mueller Hinton Agar, 35° Celsius, 20 hours, read-out: Minimum Inhibitory Concentration (MIC in μg/ml)
Method: as §1, §2, §3, §4

[11] = system: S. aureus MRO 00001; assay: Agar Dilution Method MIC, S. aureus MRO 00001; format: cell-based; conditions: Staphylococcus aureus, MRO00001, Mueller Hinton Agar, 35° Celsius, 20 hours, read-out: Minimum Inhibitory Concentration (MIC in μg/ml)
Method: as §1, §2, §3, §4

[12] = system: E. fecalis MRO 04045; assay: Agar Dilution Method MIC, E. fecalis MRO 04045; format: cell-based; conditions: Enterococcus faecalis, MRO04045, Mueller Hinton Agar, 35° Celsius, 20 hours, read-out: Minimum Inhibitory Concentration (MIC in μg/ml)
Method: as §1, §2, §3, §4

[13] = system: M. catarrhalis ATCC 43628; assay: Agar Dilution Method MIC, M. catarrhalis ATCC 43628; format: cell-based, Morexella catarrhalis; conditions: Moraxella catarrhalis, ATCC43628, Mueller Hinton Agar, 35° Celsius, 20 hours, read-out: Minimum Inhibitory Concentration (MIC in μg/ml)
Method: as §1, §2, §3, §4

[14] = system: M. catarrhalis ATCC 43617; assay: Agar Dilution Method MIC, M. catarrhalis ATCC 43617; format: cell-based, Morexella catarrhalis; conditions: Moraxella catarrhalis, ATCC43617, Mueller Hinton Agar, 35° Celsius, 20 hours, read-out: Minimum Inhibitory Concentration (MIC in μg/ml)
Method: as §1, §2, §3, §4

[15] = system: S. aureus MRO 00048; assay: Agar Dilution Method MIC, S. aureus MRO 00048; format: cell-based; conditions: Staphylococcus aureus, MRO00048, Mueller Hinton Agar, 35° Celsius, 20 hours, read-out: Minimum Inhibitory Concentration (MIC in μg/ml)
Method: as §1, §2, §3, §4

[16] = system: S. aureus MRO 00003; assay: Agar Dilution Method MIC, S. aureus MRO 00003; format: cell-based; conditions: Staphylococcus aureus, MRO00003, Mueller Hinton Agar, 35° Celsius, 20 hours, read-out: Minimum Inhibitory Concentration (MIC in μg/ml)
Method: as §1, §2, §3, §4

CC(=O)NC[C@H]1CN(c2ccc(N3CCN(C(=S)CN)CC3)c(F)c2)C(=O)O1.Cl
melting point: 202 to 204 °C

CC(=S)NC[C@H]1CN(c2ccc(N3CCN(C(=S)c4ccc(C)s4)CC3)c(F)c2)C(=O)O1 [Example 7, (S)-N-[3-[3-Fluoro-4-[4-(5-methylthiophen-2-ylthiocarbonyl)piperazin-1-yl]phenyl]-2-oxooxazolidin-5-ylmethyl]thioacetamide]
MIC [1]: 0.5 µg/mL (≈ 1.01 µM)
MIC [2]: 0.5 µg/mL (≈ 1.01 µM)
MIC [3]: 0.5 µg/mL (≈ 1.01 µM)
MIC [4]: 1 µg/mL (≈ 2.03 µM)
MIC [5]: 0.5 µg/mL (≈ 1.01 µM)
MIC [6]: 2 µg/mL (≈ 4.06 µM)
MIC [7]: 0.5 µg/mL (≈ 1.01 µM)
MIC [8]: 0.5 µg/mL (≈ 1.01 µM)
MIC [9]: 0.25 µg/mL (≈ 0.507 µM)
MIC [10]: 0.5 µg/mL (≈ 1.01 µM)
MIC [11]: 0.25 µg/mL (≈ 0.507 µM)
MIC [12]: 0.5 µg/mL (≈ 1.01 µM)
MIC [13]: 2 µg/mL (≈ 4.06 µM)
MIC [14]: 2 µg/mL (≈ 4.06 µM)
MIC [15]: 0.5 µg/mL (≈ 1.01 µM)
MIC [16]: 0.5 µg/mL (≈ 1.01 µM)

CC(=S)NC[C@H]1CN(c2ccc(N3CCN(C(=S)c4ccc([N+](=O)[O-])o4)CC3)c(F)c2)C(=O)O1 [Example 5, (S)-N-[3-[3-Fluoro-4-[4-(5-nitrofuran-2-ylthiocarbonyl)piperazin-1-yl]phenyl]-2-oxooxazolidin-5-ylmethyl]thioacetamide]
MIC [1]: 0.25 µg/mL (≈ 0.493 µM)
MIC [2]: 0.5 µg/mL (≈ 0.985 µM)
MIC [3]: 0.5 µg/mL (≈ 0.985 µM)
MIC [4]: 0.5 µg/mL (≈ 0.985 µM)
MIC [5]: 0.5 µg/mL (≈ 0.985 µM)
MIC [6]: 1 µg/mL (≈ 1.97 µM)
MIC [7]: 0.5 µg/mL (≈ 0.985 µM)
MIC [8]: 0.5 µg/mL (≈ 0.985 µM)
MIC [9]: 0.25 µg/mL (≈ 0.493 µM)
MIC [10]: 0.5 µg/mL (≈ 0.985 µM)
MIC [11]: 0.5 µg/mL (≈ 0.985 µM)
MIC [12]: 1 µg/mL (≈ 1.97 µM)
MIC [13]: 0.5 µg/mL (≈ 0.985 µM)
MIC [14]: 0.5 µg/mL (≈ 0.985 µM)
MIC [15]: 0.25 µg/mL (≈ 0.493 µM)
MIC [16]: 0.5 µg/mL (≈ 0.985 µM)
